{"source": "patent US6503449B1", "about": "“Process for the control of microbial contamination in water-based solids suspensions” (Ciba Specialty Chemicals Corporation, priority 1998, dated 2003)", "system": "mixture of Gram positive and Gram negative bacteria", "assay": "Sonication of Pigment Red 23 dispersion of Example 2 with biocide, bacterial contamination check", "assay_type": "cell-based", "set-up": "key: −: no bacterial colonies detected; +: light contamination (10^0 and 10^3 cfu/ml); ++: moderate contamination(10^3-10^5 cfu/ml); +++: heavy contamination(>10^5 cfu/ml)", "excerpt": "A mixture of Pigment Red 23, available from Ciba Specialty Chemicals(UK) Ltd., 215.5 parts, Emulan OG (RTM) (35% solution in water), available from BASF, 153.7 parts, tributyl phosphate, available from Albright & Wilson, 2 parts, and water, 128.8 parts, are dispersed by re-circulation through a Bachofen KDL200 bead-mill until colouristic properties are within specification of UNISPERSE (RTM) Red RBS-PI, available from Ciba Specialty Chemicals(UK) Ltd., and adjusted to pH 8.0-8.5 with 20% sodium hydroxide solution. This material is identified as containing the Gram negative bacterium, Pseudomonas putida. 50 millilitre aliquots of this dispersion containing levels of glutaraldehyde (pentane-1,5-dialdehyde), available as the trade product Protectol GDA form BASF or Ucarcide from Union Carbide, between 0 parts per million (ppm) and 2000 ppm are sonicated using a Branson MSE sonicator with a 19 mm horn probe resonating at 20 kHz with an amplitude of 6 microns. Sonication is undertaken in a 100 millilitre glass beaker, diameter 38 mm, with magnetic flea agitator and cooled in a water/ice bath to maintain temperature at 28-32° C. Bacterial growth in each sample is assessed at 5 minute intervals by streaking each dispersion on to Nutrient Agar(NA) plates and incubating the plates for a minimum of 48 hours at 30° C. The plates are then examined for bacterial colonies and expressed according to the following notation:\nA mixture of Pigment Red 23,215.5 parts, Emulan OG (RTM) (35% solution in water), 153.7 parts, tributyl phosphate, 2 parts, and water, 128.8 parts are dispersed by re-circulation through a Bachofen KDL200 bead-mill until colouristic properties are within specification of UNISPERSE (RTM) Red RBS-PI as detailed in Example 1 and adjusted to pH 8.0-8.5 with 20% sodium hydroxide solution. This material is identified as having a bacterial count of 4.8×10^6 colony-forming units (cfu) per millilitre comprised of a mixture of Gram positive and Gram negative bacteria. It is treated with 250 parts per million(ppm) of pentane 1,5-dialdehyde and pumped through a 2406 Nearfield Accoustical Processor sonicating at 16 kHz and 20 kHz respectively with a plate separation of 6 mm (approximately) at a flow rate of 750 kg/hr. Assessment bacterial activity is then done by spreading a sample of the pigment dispersion on Nutrient Agar(NA) plates and incubating at 30° C. for 48 hours. […] The temperature rise is 1° C. per pass, from a starting value of 20° C.\nThe solids dispersion as defined in Example 2, containing the mixture of Gram positive and Gram negative bacteria, is treated separately with 200 ppm and 500 ppm of pentane-1,5-dialdeyde (Ucarcide 250 (RTM)), and with 200 ppm and 500 ppm of CIT/MIT mixture (Acticide LG (RTM)) and each sonicated for a period of 30 minutes according to the process defined in Example 1. Each sample is then checked for bacterial contamination over following 28 days.", "data": [{"smiles": "O=CCCCC=O", "note": "[glutaraldehyde, pentane-1,5-dialdehyde]", "values": [{"measurement": "bacterial contamination", "setting": "Ucarcide 250 200 ppm, 1 days after sonication", "result": "−"}, {"measurement": "bacterial contamination", "setting": "Ucarcide 250 200 ppm, 2 days after sonication", "result": "−"}, {"measurement": "bacterial contamination", "setting": "Ucarcide 250 200 ppm, 7 days after sonication", "result": "−"}, {"measurement": "bacterial contamination", "setting": "Ucarcide 250 200 ppm, 14 days after sonication", "result": "−"}, {"measurement": "bacterial contamination", "setting": "Ucarcide 250 200 ppm, 28 days after sonication", "result": "−"}, {"measurement": "bacterial contamination", "setting": "Ucarcide 250 200 ppm, sonicated 0 mins.", "result": "+++ (heavy contamination(>10^5 cfu/ml))"}, {"measurement": "bacterial contamination", "setting": "Ucarcide 250 200 ppm, sonicated 5 mins.", "result": "++ (moderate contamination(10^3-10^5 cfu/ml))"}, {"measurement": "bacterial contamination", "setting": "Ucarcide 250 200 ppm, sonicated 10 mins.", "result": "−"}, {"measurement": "bacterial contamination", "setting": "Ucarcide 250 200 ppm, sonicated 15 mins.", "result": "−"}, {"measurement": "bacterial contamination", "setting": "Ucarcide 250 200 ppm, sonicated 20 mins.", "result": "−"}, {"measurement": "bacterial contamination", "setting": "Ucarcide 250 200 ppm, sonicated 25 mins.", "result": "−"}, {"measurement": "bacterial contamination", "setting": "Ucarcide 250 200 ppm, sonicated 30 mins.", "result": "−"}, {"measurement": "bacterial contamination", "setting": "Ucarcide 250 500 ppm, 1 days after sonication", "result": "−"}, {"measurement": "bacterial contamination", "setting": "Ucarcide 250 500 ppm, 2 days after sonication", "result": "−"}, {"measurement": "bacterial contamination", "setting": "Ucarcide 250 500 ppm, 7 days after sonication", "result": "−"}, {"measurement": "bacterial contamination", "setting": "Ucarcide 250 500 ppm, 14 days after sonication", "result": "−"}, {"measurement": "bacterial contamination", "setting": "Ucarcide 250 500 ppm, 28 days after sonication", "result": "−"}, {"measurement": "bacterial contamination", "setting": "Ucarcide 250 500 ppm, sonicated 0 mins.", "result": "+++ (heavy contamination(>10^5 cfu/ml))"}, {"measurement": "bacterial contamination", "setting": "Ucarcide 250 500 ppm, sonicated 5 mins.", "result": "−"}, {"measurement": "bacterial contamination", "setting": "Ucarcide 250 500 ppm, sonicated 10 mins.", "result": "−"}, {"measurement": "bacterial contamination", "setting": "Ucarcide 250 500 ppm, sonicated 15 mins.", "result": "−"}, {"measurement": "bacterial contamination", "setting": "Ucarcide 250 500 ppm, sonicated 20 mins.", "result": "−"}, {"measurement": "bacterial contamination", "setting": "Ucarcide 250 500 ppm, sonicated 25 mins.", "result": "−"}, {"measurement": "bacterial contamination", "setting": "Ucarcide 250 500 ppm, sonicated 30 mins.", "result": "−"}]}]}
